In paper PMC10790361, “Membrane Partitioning of TEMPO Discriminates Human Lung Cancer from Neighboring Normal Cells” (Acta Naturae, 2023):
pIC50: −log10 of the molar value.

Assays:
[1] = system: membranes of human lung normal (healthy) cells; test: EPR study of TEMPO partitioning into membranes of healthy (normal) human lung cells; assay type: physicochemical; details: for DGK (free energy change to transfer TEMPO from aqueous to lipid phase of the membrane) / DGt (∆Gτ, activation energy of rotational motions of TEMPO in the membrane) / 2Aiso aqueous / 2Aiso membrane: healthy cells; for DGK (free energy change to transfer TEMPO from aqueous to lipid phase of the membrane) / DGt (∆Gτ, activation energy of rotational motions of TEMPO in the membrane): 283–317 K; for 2Aiso aqueous: TEMPO in aqueous phase; for 2Aiso membrane: TEMPO in membrane
Description: (§1) The fresh lung tissue (about 2-3 h after the surgery) was washed thoroughly with PBS buffer to remove blood. Afterward, the tissue was cut into small pieces and then homogenized in PBS buffer using a glass homogenizer. The homogenized lung tissue was washed three times with PBS solution and then centrifuged (Eppendorf 5418) to remove the cell debris. Obtained cell suspension was used for the experiments. The intactness of the cells was assessed by Zeta-potential measurements as shown previously.
(§2) EPR measurements were performed using a Bruker ELEXSYS E580 spectrometer at X-band frequency with variable temperature accessory. The aqueous suspension of lung carcinoma and neighboring normal cells with TEMPO were placed into Pyrex capillary tubes with an I.D. of 0.6 mm. EPR spectra were recorded with the following instrument parameters: scan width: 100 Gauss; sweep time: 40 s; modulation amplitude: 1 Gauss; modulation frequency: 100 kHz; microwave power: 0.47 mW; and time constant: 0.1 s. Before the measurements, the samples were kept for 5 minutes at each temperature to ensure that the sample temperature matched the set temperatures.
(§3) The difference in the nitrogen splitting constant of TEMPO in hydrophobic (cell membrane) and hydrophilic (aqueous) environments is the reason for the split of the third component. Consequently, the EPR spectra of TEMPO incubated with cells in an aqueous environment reflect the partitioning of TEMPO in the lipid fraction of the cell membrane and aqueous environments. To resolve the spectral components, the EPR spectra of TEMPO were analyzed using the LabVIEW program developed by Christian Altenbach (https://sites.google.com/site/altenbach/), using the spectral simulation code written in FORTRAN [34]. Along with computer simulations, rotational correlation times of TEMPO were also calculated using the following formula that uses the peak heights and line widths of the first derivative EPR spectra:
(§4) where W0 is the width (in Gauss) of the central component, while h0 and h-1 are the heights of the central and high-magnetic field components of the first derivative EPR spectrum. As mentioned above, the EPR spectra resulting from the partitioning of TEMPO in the system are composite and consist of two components. Therefore, the formula above was applied after the decomposition of the EPR spectra into lipophilic and hydrophilic components. Because of the close similarity of the correlation times obtained from the software and the formula, data are shown only as deduced from the software.
(§5) Double integrals of the EPR spectral components (Imbrand Iaqrepresent TEMPO confined in the membrane and aqueous environments, respectively) were employed to calculate partition coefficients with the following formula: K = Imbr/(Imbr+ Iaq). To characterize the EPR spectral components, the membrane and aqueous environments were described as lipophylic and hydrophilic, respectively. Apparently, a partition coefficient depends on both the concentration of the lipid fractions and the number of lung cells in the aqueous system. For an accurate comparison of the data related to the partition coefficients, the same amount (by weight) of cancer and normal cell suspensions were used. Both cancer and normal cell suspensions were incubated with TEMPO (150 mM total concentration) for about 30 min. The experimental conditions used in this study allow us to compare the partition coefficients of the normal and cancer cells directly.
(§6) The temperature dependence of the equilibrium constant K (partition coefficient in our case) was used to calculate the free energy changes required to transfer TEMPO molecules from the aqueous to the lipid phase of the membranes of the healthy and cancer cells.
(§7) Similarly, the temperature dependence of the rotational correlation times of TEMPO was used to determine the activation energies for rotational motions in the membranes of the healthy and cancer cells.

[2] = system: membranes of human lung carcinoma (cancer) cells; test: EPR study of TEMPO partitioning into membranes of human lung carcinoma cells; assay type: physicochemical; details: for 2Aiso aqueous: TEMPO in aqueous phase
Description: as §1, §2, §3, §4, §5, §6, §7

[3] = from cited IC50 values
[4] = set-up: method as in PMID 38234602; details: cited from earlier work
[5] = read-out: IC50 (cytotoxicity); cited from earlier work
HCT116 cell lines = system: HCT116 cell lines; set-up: method as in PMID 9607601; details: cited from earlier work
[6] = system: various cell lines related to breast, colon, liver, and ovary cancer; set-up: method as in PMID 9607601; details: range over cell lines related to breast, read-out: IC50 as an antiproliferative agent; cited from earlier work
[7] = cancer cells, pH 6.2, 283–317 K
[8] = cancer cells, pH 7.3, 283–317 K

CC1(C)CCCC(C)(C)N1[O] [TEMPO, 2,2,6,6-tetramethylpiperidine-1-oxyl]
increase of free energy change of TEMPO transfer ([1]; healthy cell membranes, acidic transition from pH 7.3 to pH 6.2): about 19%
rotational correlation time of TEMPO in membrane ([1]; healthy cell membranes, room temperature, pH 7.3): ~617 ps
DGK (free energy change to transfer TEMPO from aqueous to lipid phase of the membrane) ([1]; pH 6.2): 3.7 ± 0.3 kcal/mol
DGt (∆Gτ, activation energy of rotational motions of TEMPO in the membrane) ([1]; pH 6.2): 3.8 ± 0.3 kcal/mol
2Aiso aqueous ([1]; pH 6.2): 34.4 Gauss
2Aiso membrane ([1]; pH 6.2): 31.9 Gauss
DGK (free energy change to transfer TEMPO from aqueous to lipid phase of the membrane) ([1]; pH 7.3): 3.1 ± 0.1 kcal/mol
DGt (∆Gτ, activation energy of rotational motions of TEMPO in the membrane) ([1]; pH 7.3): 1.9 ± 0.2 kcal/mol
2Aiso aqueous ([1]; pH 7.3): 34.5 Gauss
2Aiso membrane ([1]; pH 7.3): 32.4 Gauss
2Aiso values of TEMPO incorporated into the membranes of the cells (interval) ([1]; membranes of healthy and cancer cells, pH 6.2 and 7.3): 31.4−32.4 Gauss
increase of free energy change of TEMPO transfer ([2]; cancer cell membranes, acidic transition from pH 7.3 to pH 6.2): ~42%
rotational correlation time of TEMPO in membrane ([2]; cancer cell membranes, room temperature, pH 7.3): about 490 ps
less energy required for TEMPO partitioning ([2]; cancer cells at pH 7.3, free energy values compared for pH 6.2 and 7.3): 30%
DGK (free energy change to transfer TEMPO from aqueous to lipid phase of the membrane) [2, 7]: 1.7 ± 0.1 kcal/mol
DGt (∆Gτ, activation energy of rotational motions of TEMPO in the membrane) [2, 7]: 2.6 ± 0.3 kcal/mol
2Aiso aqueous ([2]; cancer cells, pH 6.2): 34.5 Gauss
DGK (free energy change to transfer TEMPO from aqueous to lipid phase of the membrane) [2, 8]: 1.2 ± 0.1 kcal/mol
DGt (∆Gτ, activation energy of rotational motions of TEMPO in the membrane) [2, 8]: 2.1 ± 0.2 kcal/mol
2Aiso aqueous ([2]; cancer cells, pH 7.3): 34.5 Gauss
2Aiso membrane ([2]; cancer cells, pH 7.3, TEMPO in membrane): 31.5 Gauss
TEMPO partition coefficient, cancer cells compared with healthy cells ([2]; cancer vs neighboring normal cells, 283–317 K, pH 7.3 and 6.2): significantly higher
IC50 of TEMPO relative to TEMPOL (fold lower) [3]: about 4 fold
partitioning into liposomes of cancer cell lipids compared to liposomes of normal cell lipids [4]: significantly enhanced partitioning
pIC50 [5]: 2.57

COc1cccc2c1C(=O)c1c(O)c3c(c(O)c1C2=O)C[C@@](O)(C(=O)CO)C[C@@H]3O[C@H]1C[C@H](N)[C@H](O)[C@H](C)O1 [doxorubicin]
fold decrease of doxorubicin IC50 by TEMPOL pretreatment (HCT116 cell lines): ~7 fold

CC1(C)CC(OC(=O)c2ccccc2)CC(C)(C)N1[O] [TEMPO-benzoate]
partitioning in liposome studies [4]: significantly enhanced partitioning

CC1(C)CC(O)CC(C)(C)N1[O] [TEMPOL, 4-hydroxy-TEMPO]
pIC50 [6]: 2.97 to 3.68
pIC50 [5]: 1.94
